Consider 3 compounds from patent US4731109A, “Herbicidal 2-haloacetanilides” (Monsanto Company, priority 1982, dated 1988).

For orientation: inhibition means the relative decrease from the control value, in per cent.

Format in all cases: in vivo
In experiment [1] the test system is cotton. Briefly: Greenhouse pre-emergence GR15/GR85 selectivity test. The text has this:
(§1) A good grade of top soil is placed in aluminum pans and compacted to a depth of three-eighths to one-half inch from the top of the pan. On the top of the soil is placed a number of seeds or vegetative propagules of various plant species. The soil required to level fill the pans after seeding or adding vegetative propagules is weighed into a pan. The soil and a known amount of the active ingredient applied in a solvent or as a wettable powder suspension are thoroughly mixed, and used to cover the prepared pans. After treatment, the pans are given an initial overhead irrigation of eater, equivalent to one-fourth inch (0.64 cm) rainfall, then watered by subirrigation as need to give adequate moisture for germination and growth. As an alternative procedure, the overhead irrigation may be omitted. Observations are made about 2-3 weeks after seeding and treatment.
(§2) In the discussion and tables of data below, reference is made to herbicide application rates symbolized as "GR15 " and "GR85 "; these rates are given in kilograms per hectare (kg/ha) which are convertible into pounds per acre (lbs/A) by dividing the kg/ha rate by 1.12.
A further guide to the effectiveness of a chemical as a selective herbicide is the "selectivity factor" ("SF") for a herbicide in given crops and weeds. The selectivity factor is a measure of the relative degree of crop safety and weed injury and is expressed in terms of the GR15 /GR85 ratio, i.e., the GR15 rate for the crop divided by the GR85 rate for the weed, both rates in kg/ha (lb/A). In the tables below, selectivity factors are shown in parenthesis following the GR85 rate for each weed; the symbol "NS" indicates "non-selective". Marginal or undetermined selectivity is indicated by a dash (--).
Additionally, pre-emergence herbicidal data from other tests have established that compounds according to this invention also selectively suppress quackgrass, yellow nutsedge and/or other weeds in one or more of the crops cotton, peanuts, bush beans and/or rape. For example, in Table VI are presented data showing the herbicidal selectivity of the compounds of Examples 1 and 2 against quackgrass in rape and snap beans. Unless otherwise noted; greenhouse tests in Table VI and in other tables below involved herbicide treatments by soil incorporation and an initial overhead irrigation followed by subirrigation as described above.
In one multi-crop test in the greenhouse, the compounds of Examples 1, 9, and 10 were tested against yellow nutsedge in cotton, soybeans, corn and rice; each compound was non-selective with respect to yellow nutsedge in rice. However, markedly high selectivities for yellow nutsedge in cotton, soybeans and corn were shown for each of the compounds in the test; the respective GR15 and GR85 rates for these compounds are shown in Table XII selectivity factors are shown in parenthesis after each crop.

Experiment [2] concerns soybeans. Briefly: Field pre-emergence selectivity test. The note with it: Glycine max, 1008 h, 6 weeks, read-out: Percent Inhibition; for inhibition at 560 g/ha: 0.56 Kg/Ha; for inhibition at 1120 g/ha: 1.12 Kg/Ha; for inhibition at 2240 g/ha: 2.24 Kg/Ha; for inhibition at 4480 g/ha: 4.48 Kg/Ha. The protocol:
(§3) The compound of Examples 1 and 2 was also tested in the field to determine its pre-emergence selectivity against foxtail (spp), barnyardgrass, wild proso millet, smartweed, lambsquarters and pigweed in a plurality of crops; the data (representing three replicate runs) are shown in Table VII for both surface application (S.A.) and soil incorporation (PPI, i.e., preplant incorporation) of the herbicide. The seeds were planted in a fine seedbed of silt loam of intermediate moisture. The seeds were planted at a depth of two inches (5.08 cm). First rainfall (0.2"; 0.51 cm) occurred the day following treatment, the second rain (0.25"; […]) two days after treatment; cumulative rainfall 22 days after treatment was 1.8" (4.57 cm). Observations were made 6 weeks after treatment.

Experiment [3] relates to Sorghum. Briefly: Field pre-emergence selectivity test. The note with it: 1008 h, 6 weeks, read-out: Percent Inhibition; for inhibition at 560 g/ha: 0.56 Kg/Ha; for inhibition at 1120 g/ha: 1.12 Kg/Ha; for inhibition at 2240 g/ha: 2.24 Kg/Ha; for inhibition at 4480 g/ha: 4.48 Kg/Ha. How it is done:
as §3

For experiment [4], the system named is pigweed. Briefly: Field pre-emergence selectivity test. The note with it: Amaranthus retroflexus, 1008 h, 6 weeks, read-out: Percent Inhibition; for inhibition at 560 g/ha: 0.56 Kg/Ha; for inhibition at 1120 g/ha: 1.12 Kg/Ha. How it is done: as §3
The subject of experiment [5] is foxtail (spp). Briefly: Field pre-emergence selectivity test. The note with it: Setaria, 1008 h, 6 weeks, read-out: Percent Inhibition; for inhibition at 560 g/ha: 0.56 Kg/Ha; for inhibition at 1120 g/ha: 1.12 Kg/Ha; for inhibition at 2240 g/ha: 2.24 Kg/Ha; for inhibition at 4480 g/ha: 4.48 Kg/Ha. How it is done:
as §3

For experiment [6], the system named is Bush Bean. Briefly: Field pre-emergence selectivity test. The note with it: 1008 h, 6 weeks, read-out: Percent Inhibition; for inhibition at 560 g/ha: 0.56 Kg/Ha; for inhibition at 1120 g/ha: 1.12 Kg/Ha; for inhibition at 2240 g/ha: 2.24 Kg/Ha; for inhibition at 4480 g/ha: 4.48 Kg/Ha. The protocol:
as §3

Experiment [7] deals with Barnyardgrass. Briefly: Field pre-emergence selectivity test. The note with it: Echinochloa crus-galli, 1008 h, 6 weeks, read-out: Percent Inhibition; for inhibition at 560 g/ha: 0.56 Kg/Ha; for inhibition at 1120 g/ha: 1.12 Kg/Ha; for inhibition at 2240 g/ha: 2.24 Kg/Ha; for inhibition at 4480 g/ha: 4.48 Kg/Ha. How it is done: as §3
Experiment [8] relates to wild proso millet. Briefly: Field pre-emergence selectivity test. The note with it: 1008 h, 6 weeks, read-out: Percent Inhibition; for inhibition at 560 g/ha: 0.56 Kg/Ha; for inhibition at 1120 g/ha: 1.12 Kg/Ha; for inhibition at 2240 g/ha: 2.24 Kg/Ha; for inhibition at 4480 g/ha: 4.48 Kg/Ha. The protocol: as §3
Experiment [9] deals with Smartweed. Briefly: Field pre-emergence selectivity test. The note with it: 1008 h, 6 weeks, read-out: Percent Inhibition; for inhibition at 1120 g/ha: 1.12 Kg/Ha; for inhibition at 2240 g/ha: 2.24 Kg/Ha. The protocol: as §3
Experiment [10] concerns rape. Briefly: Field pre-emergence selectivity test. The note with it: 1008 h, 6 weeks, read-out: Percent Inhibition; for inhibition at 560 g/ha: 0.56 Kg/Ha; for inhibition at 1120 g/ha: 1.12 Kg/Ha; for inhibition at 2240 g/ha: 2.24 Kg/Ha; for inhibition at 4480 g/ha: 4.48 Kg/Ha. The protocol: as §3
Experiment [11] concerns snap beans. Kind of experiment: Greenhouse pre-emergence GR15/GR85 selectivity test. The note with it: Table VI.
Excerpt: as §1, §2
A further guide to the effectiveness of a chemical as a selective herbicide is the "selectivity factor" ("SF") for a herbicide in given crops and weeds. […]

SMILES strings stand for the structures. Where two headings read alike, the source gives them in different places.

In experiment [1] (Table XII), `CCCOCN(C(=O)CCl)c1c(CC)cccc1C(F)(F)F` [Example 10, N--(n-propoxymethyl)-2'-trifluoromethyl-6'-ethyl-2-chloroacetanilide] yielded a GR15 of 2.8 Kg/Ha.

Consider `CCOCN(C(=O)CCl)c1c(CC)cccc1C(F)(F)F` [Example 9, N--(ethoxymethyl)-2'-trifluoromethyl-6'-ethyl-2-chloroacetanilide], for which the GR15 was determined as 2.5 Kg/Ha in experiment [1] (Table XII) and 0.7 kg/ha in experiment [1] (cotton/yellow nutsedge).

On to `CC(C)OCN(C(=O)CCl)c1ccccc1C(F)(F)F` [Example 2, N--(isopropoxymethyl)-2'-trifluoromethyl-2-chloroacetanilide], for which the inhibition at 560 g/ha came out at 3% in experiment [2] (P.P.I.); 0% in experiment [2] (S.A.); 7% in experiment [3] (P.P.I.); 0% in [3] (S.A.); 33% in experiment [4] (P.P.I.); 0% in experiment [4] (S.A.). The inhibition at 560 g/ha in experiment [5] (P.P.I.) was 77%; in experiment [5] (S.A.) it was 50%; in experiment [6] (P.P.I.), 5%; in experiment [6] (S.A.), 0%; in experiment [7] (P.P.I.), 85%; in experiment [7] (S.A.), 50%. In addition, the inhibition at 560 g/ha in experiment [8] (P.P.I.) was found to be 35%; in experiment [8] (S.A.), 27%; in experiment [9] (S.A., 0.56 Kg/Ha), 0%; in experiment [10] (P.P.I.) it was 0%; in experiment [10] (S.A.), 0%. In addition, the inhibition at 1120 g/ha in experiment [2] (P.P.I.) turned out to be 0%; in experiment [2] (S.A.) it was 0%; in experiment [3] (P.P.I.), 27%; in experiment [3] (S.A.), 0%; in experiment [4] (P.P.I.), 85%; in [4] (S.A.), 0%. Also, the inhibition at 1120 g/ha in experiment [5] (P.P.I.) was found to be 78%; in experiment [5] (S.A.), 85%; in experiment [6] (P.P.I.) it was 13%; in experiment [6] (S.A.) it was 0%; in [7] (P.P.I.), 88%; in experiment [7] (S.A.), 87%. Also, the inhibition at 1120 g/ha worked out at 48% in [8] (P.P.I.); 63% in experiment [8] (S.A.); 75% in experiment [9] (P.P.I.); 10% in [9] (S.A.); 15% in [10] (P.P.I.); 5% in [10] (S.A.). Besides, the inhibition at 2240 g/ha in experiment [2] (P.P.I.) is 13%; in experiment [2] (S.A.), 3%; in experiment [3] (P.P.I.) it was 38%; in experiment [3] (S.A.), 5%; in experiment [4] (P.P.I., 2.24 Kg/Ha), 85%; in experiment [5] (P.P.I.) it was 87%. The inhibition at 2240 g/ha in experiment [5] (S.A.) stood at 90%; in experiment [6] (P.P.I.), 22%; in experiment [6] (S.A.), 5%; in experiment [7] (P.P.I.), 95%; in [7] (S.A.), 90%; in experiment [8] (P.P.I.), 68%. The inhibition at 2240 g/ha is 75% in experiment [8] (S.A.); 95% in experiment [9] (P.P.I.); 20% in [9] (S.A.); 27% in [10] (P.P.I.); 0% in experiment [10] (S.A.). Moreover, the inhibition at 4480 g/ha is 28% in [2] (P.P.I.); 10% in [2] (S.A.); 90% in experiment [3] (P.P.I.); 33% in experiment [3] (S.A.); 88% in [4] (P.P.I., 4.48 Kg/Ha); 100% in experiment [5] (P.P.I.). Besides, the inhibition at 4480 g/ha is 97% in experiment [5] (S.A.); 63% in [6] (P.P.I.); 33% in [6] (S.A.); 100% in [7] (P.P.I.); 97% in [7] (S.A.); 87% in [8] (P.P.I.). The inhibition at 4480 g/ha came to 93% in [8] (S.A.); 63% in experiment [9] (S.A., 4.48 Kg/Ha); 35% in [10] (P.P.I.); 30% in experiment [10] (S.A.). For the same compound, the “GR15 Rate” value in experiment [11] was determined as 2.2 Kg/Ha.
